{"source": "paper PMC10652874", "about": "“Investigation into the mechanism of action of the antimicrobial peptide epilancin 15X” (Frontiers in Microbiology, 2023)", "system": "S. carnosus TM300", "experiment": "RNAseq differential gene expression", "format": "cell-based, Staphylococcus carnosus", "method": "For the RNAseq experiments, epilancin was added at sub-lethal concentration (0.5x MIC) to S. carnosus TM300 once the cultures reached an OD600 of 0.6. RNA was extracted 40 min after the treatment, using a FastRNA Pro Blue kit (MP Biomedicals). Both treated and parallel untreated samples were collected at the same time. Sequencing was performed at the Carver Biotechnology Center (UIUC). For RNAseq analysis, gene counts were read in to R (v3.1.1; [Team, 2014]), and 14/2441 genes were removed because they had fewer than 32 total counts across the six samples. edgeR’s (v3.6.7) TMM normalization ([Robinson and Oshlack, 2010]) plus negative binomial generalized log-linear model ([McCarthy et al., 2012]) was used to test for differential expression between treated and untreated groups, while accounting for pairing of U and T replicates from three different cultures. p-values were adjusted using the false discovery rate method ([Benjamini and Hochberg, 1995])."}
{"substance": "Epilancin 15X", "values": [{"measurement": "fold_change", "setting": "gene ileS, isoleucyl-tRNA synthetase", "value": 0.47}, {"measurement": "fold_change", "setting": "gene kbl, 2-amino-3-ketobutyrate coenzyme A ligase", "value": 0.46}, {"measurement": "fold_change", "setting": "gene mnhA, monovalent cation/H+ antiporter subunit A", "value": 0.48}, {"measurement": "fold_change", "setting": "gene murC, UDP-N-acetylmuramate--L-alanine ligase", "value": 0.4}, {"measurement": "fold_change", "setting": "gene ndk, nucleoside diphosphate kinase", "value": 0.44}, {"measurement": "fold_change", "setting": "gene nirC, NirC protein", "value": 0.43}, {"measurement": "fold_change", "setting": "gene nos, nitric oxide synthase oxygenase", "value": 0.43}, {"measurement": "fold_change", "setting": "gene opuAC, putative glycine betaine ABC transporter substrate-binding protein", "value": 0.43}, {"measurement": "fold_change", "setting": "gene pmi, mannose-6-phosphate isomerase", "value": 0.42}, {"measurement": "fold_change", "setting": "gene potA, putative spermidine/putrescine import ATP-binding protein PotA", "value": 0.41}, {"measurement": "fold_change", "setting": "gene prmC (SCA_1620), hypothetical protein", "value": 0.48}, {"measurement": "fold_change", "setting": "gene ptsG (glcA), glucose-specific phosphotransferase system enzyme II, factor IIA", "value": 0.42}, {"measurement": "fold_change", "setting": "gene purA, adenylosuccinate synthetase", "value": 0.45}, {"measurement": "fold_change", "setting": "gene purB, adenylosuccinate lyase", "value": 0.41}, {"measurement": "fold_change", "setting": "gene rex (SCA_1553), redox-sensing transcriptional repressor Rex", "value": 0.42}, {"measurement": "fold_change", "setting": "gene rimM, 16S rRNA-processing protein RimM", "value": 0.44}, {"measurement": "fold_change", "setting": "gene rplE, 50S ribosomal protein L5", "value": 0.47}, {"measurement": "fold_change", "setting": "gene rplF, 50S ribosomal protein L6", "value": 0.48}, {"measurement": "fold_change", "setting": "gene rplJ, 50S ribosomal protein L10", "value": 0.48}, {"measurement": "fold_change", "setting": "gene rplL, 50S ribosomal protein L7/L12", "value": 0.48}, {"measurement": "fold_change", "setting": "gene rplR, 50S ribosomal protein L18", "value": 0.47}, {"measurement": "fold_change", "setting": "gene rplX, 50S ribosomal protein L24", "value": 0.48}, {"measurement": "fold_change", "setting": "gene rpmD, 50S ribosomal protein L30", "value": 0.48}, {"measurement": "fold_change", "setting": "gene rpmG, 50S ribosomal protein L33", "value": 0.42}, {"measurement": "fold_change", "setting": "gene rpsE, 30S ribosomal protein S5", "value": 0.48}, {"measurement": "fold_change", "setting": "gene rpsF, 30S ribosomal protein S6", "value": 0.42}, {"measurement": "fold_change", "setting": "gene rpsH, 30S ribosomal protein S8", "value": 0.48}, {"measurement": "fold_change", "setting": "gene rpsR, 30S ribosomal protein S18", "value": 0.47}, {"measurement": "fold_change", "setting": "gene rpsT, 30S ribosomal protein S20", "value": 0.44}, {"measurement": "fold_change", "setting": "gene sdhB, succinate dehydrogenase iron-sulfur subunit", "value": 0.41}, {"measurement": "fold_change", "setting": "gene trmD, tRNA (guanine-N(1)-)-methyltransferase", "value": 0.44}, {"measurement": "fold_change", "setting": "gene trpD, anthranilate phosphoribosyltransferase", "value": 0.4}, {"measurement": "fold_change", "setting": "gene trpS, tryptophanyl-tRNA synthetase", "value": 0.47}, {"measurement": "fold_change", "setting": "gene tyrA, prephenate dehydrogenase", "value": 0.41}, {"measurement": "fold_change dps", "setting": "general stress protein 20U", "value": 6.95}, {"measurement": "fold_change Sca_1447", "setting": "glycosyltransferase", "value": 3.57}, {"measurement": "fold_change Sca_0051", "setting": "glyoxalase/bleomycin resistance protein/dioxygenase superfamily protein", "value": 6.15}, {"measurement": "fold_change Sca_0808", "setting": "glyoxalase/bleomycin resistance protein/dioxygenase superfamily protein (fragment 2)", "value": 2.14}, {"measurement": "fold_change gloA", "setting": "glyoxylase family protein", "value": 3.75}, {"measurement": "fold_change grpE", "setting": "heat shock protein GrpE", "value": 2.94}, {"measurement": "fold_change vraS", "setting": "histidine kinase sensor", "value": 7.95}, {"measurement": "fold_change Sca_0031", "setting": "hypothetical protein", "value": 3.09}, {"measurement": "fold_change Sca_0046", "setting": "hypothetical protein", "value": 2.17}, {"measurement": "fold_change Sca_0052", "setting": "hypothetical protein", "value": 5.71}, {"measurement": "fold_change Sca_0054", "setting": "hypothetical protein", "value": 2.52}, {"measurement": "fold_change Sca_0067", "setting": "hypothetical protein", "value": 4.42}, {"measurement": "fold_change Sca_0071", "setting": "hypothetical protein", "value": 7.07}, {"measurement": "fold_change Sca_0072", "setting": "hypothetical protein", "value": 7.15}, {"measurement": "fold_change Sca_0096", "setting": "hypothetical protein", "value": 3.48}, {"measurement": "fold_change Sca_0097", "setting": "hypothetical protein", "value": 2.35}, {"measurement": "fold_change Sca_0098", "setting": "hypothetical protein", "value": 2.28}, {"measurement": "fold_change Sca_0100", "setting": "hypothetical protein", "value": 2.47}, {"measurement": "fold_change Sca_0114", "setting": "hypothetical protein", "value": 3.35}, {"measurement": "fold_change Sca_0117", "setting": "hypothetical protein", "value": 2.03}, {"measurement": "fold_change Sca_0128", "setting": "hypothetical protein", "value": 0.49}, {"measurement": "fold_change Sca_0133", "setting": "hypothetical protein", "value": 2.43}, {"measurement": "fold_change Sca_0179", "setting": "hypothetical protein", "value": 5.25}, {"measurement": "fold_change Sca_0238", "setting": "hypothetical protein", "value": 5.63}, {"measurement": "fold_change Sca_0248", "setting": "hypothetical protein", "value": 3.2}, {"measurement": "fold_change Sca_0264", "setting": "hypothetical protein", "value": 2.54}, {"measurement": "fold_change Sca_0265", "setting": "hypothetical protein", "value": 3.04}, {"measurement": "fold_change Sca_0279", "setting": "hypothetical protein", "value": 2.02}, {"measurement": "fold_change Sca_0299", "setting": "hypothetical protein", "value": 4.24}, {"measurement": "fold_change Sca_0324", "setting": "hypothetical protein", "value": 2.17}, {"measurement": "fold_change Sca_0328", "setting": "hypothetical protein", "value": 6.61}, {"measurement": "fold_change Sca_0329", "setting": "hypothetical protein", "value": 5.2}, {"measurement": "fold_change Sca_0356", "setting": "hypothetical protein", "value": 4.74}, {"measurement": "fold_change Sca_0422", "setting": "hypothetical protein", "value": 2.12}, {"measurement": "fold_change Sca_0454", "setting": "hypothetical protein", "value": 3.4}, {"measurement": "fold_change Sca_0459", "setting": "hypothetical protein", "value": 3.3}, {"measurement": "fold_change Sca_0468", "setting": "hypothetical protein", "value": 2.78}, {"measurement": "fold_change Sca_0471", "setting": "hypothetical protein", "value": 4}, {"measurement": "fold_change Sca_0472", "setting": "hypothetical protein", "value": 3.68}, {"measurement": "fold_change Sca_0473", "setting": "hypothetical protein", "value": 4.68}, {"measurement": "fold_change Sca_0474", "setting": "hypothetical protein", "value": 4.61}, {"measurement": "fold_change Sca_0477", "setting": "hypothetical protein", "value": 4.52}, {"measurement": "fold_change Sca_0478", "setting": "hypothetical protein", "value": 3.97}, {"measurement": "fold_change Sca_0481", "setting": "hypothetical protein", "value": 4.58}, {"measurement": "fold_change Sca_0482", "setting": "hypothetical protein", "value": 3.77}, {"measurement": "fold_change Sca_0483", "setting": "hypothetical protein", "value": 3.93}, {"measurement": "fold_change Sca_0484", "setting": "hypothetical protein", "value": 3.96}, {"measurement": "fold_change Sca_0485", "setting": "hypothetical protein", "value": 3.21}, {"measurement": "fold_change Sca_0487", "setting": "hypothetical protein", "value": 4.14}, {"measurement": "fold_change Sca_0488", "setting": "hypothetical protein", "value": 2.02}, {"measurement": "fold_change Sca_0489", "setting": "hypothetical protein", "value": 2.6}, {"measurement": "fold_change Sca_0490", "setting": "hypothetical protein", "value": 2.76}, {"measurement": "fold_change Sca_0491", "setting": "hypothetical protein", "value": 2.13}, {"measurement": "fold_change Sca_0525", "setting": "hypothetical protein", "value": 2.45}, {"measurement": "fold_change Sca_0529", "setting": "hypothetical protein", "value": 2.16}, {"measurement": "fold_change Sca_0643", "setting": "hypothetical protein", "value": 3.47}, {"measurement": "fold_change Sca_0647", "setting": "hypothetical protein", "value": 2.16}, {"measurement": "fold_change Sca_0648", "setting": "hypothetical protein", "value": 2.05}, {"measurement": "fold_change Sca_0666", "setting": "hypothetical protein", "value": 5.78}, {"measurement": "fold_change Sca_0700", "setting": "hypothetical protein", "value": 2.96}, {"measurement": "fold_change Sca_0703", "setting": "hypothetical protein", "value": 5.58}, {"measurement": "fold_change Sca_0752", "setting": "hypothetical protein", "value": 2.97}, {"measurement": "fold_change Sca_0778", "setting": "hypothetical protein", "value": 3.33}, {"measurement": "fold_change Sca_0834", "setting": "hypothetical protein", "value": 3.67}, {"measurement": "fold_change Sca_0844", "setting": "hypothetical protein", "value": 5.22}, {"measurement": "fold_change Sca_0862", "setting": "hypothetical protein", "value": 2.79}, {"measurement": "fold_change Sca_0868", "setting": "hypothetical protein", "value": 2.53}, {"measurement": "fold_change Sca_0877", "setting": "hypothetical protein", "value": 2.02}, {"measurement": "fold_change Sca_0934", "setting": "hypothetical protein", "value": 3.62}, {"measurement": "fold_change Sca_0935", "setting": "hypothetical protein", "value": 2.43}, {"measurement": "fold_change Sca_0959", "setting": "hypothetical protein", "value": 2.05}, {"measurement": "fold_change Sca_0965", "setting": "hypothetical protein", "value": 2.37}, {"measurement": "fold_change Sca_0993", "setting": "hypothetical protein", "value": 2.38}, {"measurement": "fold_change Sca_1021", "setting": "hypothetical protein", "value": 2.3}, {"measurement": "fold_change Sca_1081", "setting": "hypothetical protein", "value": 2.09}, {"measurement": "fold_change Sca_1154", "setting": "hypothetical protein", "value": 2.08}, {"measurement": "fold_change Sca_1155", "setting": "hypothetical protein", "value": 2.03}, {"measurement": "fold_change Sca_1209", "setting": "hypothetical protein", "value": 3.24}, {"measurement": "fold_change Sca_1210", "setting": "hypothetical protein", "value": 2.68}, {"measurement": "fold_change Sca_1212", "setting": "hypothetical protein", "value": 2.1}, {"measurement": "fold_change Sca_1236", "setting": "hypothetical protein", "value": 5.11}, {"measurement": "fold_change Sca_1237", "setting": "hypothetical protein", "value": 5.24}, {"measurement": "fold_change Sca_1261", "setting": "hypothetical protein", "value": 4.39}, {"measurement": "fold_change Sca_1262", "setting": "hypothetical protein", "value": 4.13}, {"measurement": "fold_change Sca_1263", "setting": "hypothetical protein", "value": 3.92}, {"measurement": "fold_change Sca_1265", "setting": "hypothetical protein", "value": 6.01}, {"measurement": "fold_change Sca_1328", "setting": "hypothetical protein", "value": 2.71}, {"measurement": "fold_change Sca_1396", "setting": "hypothetical protein", "value": 2.4}, {"measurement": "fold_change Sca_1420", "setting": "hypothetical protein", "value": 2.04}, {"measurement": "fold_change Sca_1461", "setting": "hypothetical protein", "value": 6.62}, {"measurement": "fold_change Sca_1500", "setting": "hypothetical protein", "value": 2.03}]}
